How the values were obtained:
Assay in all cases: DSF Tm panel
Format in all cases: binding
Settings in all cases: 10 μM compound
[1] = target: T1, MERTK (Homo sapiens, UniProt Q12866)
T1 construct: purchased in-house DSF kinase panel (SGC-style construct names; the trailing letter is the construct ID)
T1 sequence (Q12866 570-864): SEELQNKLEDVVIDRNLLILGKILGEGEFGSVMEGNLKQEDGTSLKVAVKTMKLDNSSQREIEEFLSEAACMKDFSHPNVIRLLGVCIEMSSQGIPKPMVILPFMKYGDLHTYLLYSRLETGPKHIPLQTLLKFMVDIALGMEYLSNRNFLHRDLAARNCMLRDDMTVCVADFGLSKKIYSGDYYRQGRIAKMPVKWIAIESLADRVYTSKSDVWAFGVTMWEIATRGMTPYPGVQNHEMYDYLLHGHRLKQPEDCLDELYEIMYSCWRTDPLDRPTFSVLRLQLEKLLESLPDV

[2] = target: T2, PHKG2A (Homo sapiens, UniProt P15735)
T2 construct: purchased in-house DSF kinase panel (SGC-style construct names; the trailing letter is the construct ID)
T2 sequence (P15735 6-293): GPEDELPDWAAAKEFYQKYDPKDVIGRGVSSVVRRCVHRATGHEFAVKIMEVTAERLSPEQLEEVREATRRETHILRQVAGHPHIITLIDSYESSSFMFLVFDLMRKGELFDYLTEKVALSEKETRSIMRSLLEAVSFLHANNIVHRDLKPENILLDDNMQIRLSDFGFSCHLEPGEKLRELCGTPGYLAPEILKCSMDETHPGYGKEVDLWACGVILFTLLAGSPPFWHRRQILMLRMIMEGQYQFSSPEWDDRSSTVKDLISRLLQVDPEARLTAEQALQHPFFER

[3] = target: T3, WNK1A (Homo sapiens, UniProt Q9H4A3)
T3 construct: purchased in-house DSF kinase panel (SGC-style construct names; the trailing letter is the construct ID)
T3 sequence (Q9H4A3 206-483): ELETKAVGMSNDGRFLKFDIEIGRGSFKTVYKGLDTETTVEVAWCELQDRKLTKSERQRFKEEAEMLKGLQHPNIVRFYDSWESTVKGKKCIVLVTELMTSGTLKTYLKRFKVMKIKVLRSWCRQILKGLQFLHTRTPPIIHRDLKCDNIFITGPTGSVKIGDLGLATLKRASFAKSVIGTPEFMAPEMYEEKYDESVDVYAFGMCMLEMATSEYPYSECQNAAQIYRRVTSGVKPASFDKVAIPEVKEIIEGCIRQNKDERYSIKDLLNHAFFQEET

[4] = target: T4, PDK4A (Homo sapiens, UniProt Q16654)
T4 construct: purchased in-house DSF kinase panel (SGC-style construct names; the trailing letter is the construct ID)
T4 sequence (Q16654 whole entry): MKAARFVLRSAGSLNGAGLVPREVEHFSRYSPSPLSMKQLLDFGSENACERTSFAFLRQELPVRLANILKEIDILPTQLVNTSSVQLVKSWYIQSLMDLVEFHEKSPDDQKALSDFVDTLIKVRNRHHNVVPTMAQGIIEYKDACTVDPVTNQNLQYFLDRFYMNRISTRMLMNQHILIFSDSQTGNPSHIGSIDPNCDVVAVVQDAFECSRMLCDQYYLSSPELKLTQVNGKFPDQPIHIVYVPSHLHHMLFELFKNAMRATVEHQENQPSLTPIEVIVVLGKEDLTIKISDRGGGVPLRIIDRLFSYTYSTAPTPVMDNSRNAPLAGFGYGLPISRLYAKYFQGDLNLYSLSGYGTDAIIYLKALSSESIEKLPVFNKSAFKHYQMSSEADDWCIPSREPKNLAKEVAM

[5] = target: T5, EPHB1A (Homo sapiens, UniProt P54762)
T5 construct: purchased in-house DSF kinase panel (SGC-style construct names; the trailing letter is the construct ID)
T5 sequence (P54762 602-896): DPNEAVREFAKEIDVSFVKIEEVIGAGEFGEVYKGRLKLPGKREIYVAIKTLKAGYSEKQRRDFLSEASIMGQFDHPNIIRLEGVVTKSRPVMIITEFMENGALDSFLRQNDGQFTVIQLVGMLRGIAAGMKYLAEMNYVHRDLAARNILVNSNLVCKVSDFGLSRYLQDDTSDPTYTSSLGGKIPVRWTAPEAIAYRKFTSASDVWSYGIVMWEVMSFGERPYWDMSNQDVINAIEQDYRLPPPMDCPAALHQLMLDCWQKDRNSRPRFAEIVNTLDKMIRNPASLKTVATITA

[6] = target: T6, MAPKAPK2A (Homo sapiens, UniProt P49137)
T6 construct: purchased in-house DSF kinase panel (SGC-style construct names; the trailing letter is the construct ID)
T6 sequence (P49137 64-325): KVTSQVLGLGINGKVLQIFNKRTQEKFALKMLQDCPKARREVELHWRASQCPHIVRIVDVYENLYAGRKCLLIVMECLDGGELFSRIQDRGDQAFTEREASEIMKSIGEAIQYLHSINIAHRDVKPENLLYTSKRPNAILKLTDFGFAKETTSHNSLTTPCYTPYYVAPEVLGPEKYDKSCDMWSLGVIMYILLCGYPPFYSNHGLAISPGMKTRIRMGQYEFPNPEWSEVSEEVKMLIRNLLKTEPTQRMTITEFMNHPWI

[7] = target: T7, TIF1A (Homo sapiens, UniProt O15164)
T7 construct: purchased in-house DSF kinase panel (SGC-style construct names; the trailing letter is the construct ID)
T7 sequence (O15164 1-1050): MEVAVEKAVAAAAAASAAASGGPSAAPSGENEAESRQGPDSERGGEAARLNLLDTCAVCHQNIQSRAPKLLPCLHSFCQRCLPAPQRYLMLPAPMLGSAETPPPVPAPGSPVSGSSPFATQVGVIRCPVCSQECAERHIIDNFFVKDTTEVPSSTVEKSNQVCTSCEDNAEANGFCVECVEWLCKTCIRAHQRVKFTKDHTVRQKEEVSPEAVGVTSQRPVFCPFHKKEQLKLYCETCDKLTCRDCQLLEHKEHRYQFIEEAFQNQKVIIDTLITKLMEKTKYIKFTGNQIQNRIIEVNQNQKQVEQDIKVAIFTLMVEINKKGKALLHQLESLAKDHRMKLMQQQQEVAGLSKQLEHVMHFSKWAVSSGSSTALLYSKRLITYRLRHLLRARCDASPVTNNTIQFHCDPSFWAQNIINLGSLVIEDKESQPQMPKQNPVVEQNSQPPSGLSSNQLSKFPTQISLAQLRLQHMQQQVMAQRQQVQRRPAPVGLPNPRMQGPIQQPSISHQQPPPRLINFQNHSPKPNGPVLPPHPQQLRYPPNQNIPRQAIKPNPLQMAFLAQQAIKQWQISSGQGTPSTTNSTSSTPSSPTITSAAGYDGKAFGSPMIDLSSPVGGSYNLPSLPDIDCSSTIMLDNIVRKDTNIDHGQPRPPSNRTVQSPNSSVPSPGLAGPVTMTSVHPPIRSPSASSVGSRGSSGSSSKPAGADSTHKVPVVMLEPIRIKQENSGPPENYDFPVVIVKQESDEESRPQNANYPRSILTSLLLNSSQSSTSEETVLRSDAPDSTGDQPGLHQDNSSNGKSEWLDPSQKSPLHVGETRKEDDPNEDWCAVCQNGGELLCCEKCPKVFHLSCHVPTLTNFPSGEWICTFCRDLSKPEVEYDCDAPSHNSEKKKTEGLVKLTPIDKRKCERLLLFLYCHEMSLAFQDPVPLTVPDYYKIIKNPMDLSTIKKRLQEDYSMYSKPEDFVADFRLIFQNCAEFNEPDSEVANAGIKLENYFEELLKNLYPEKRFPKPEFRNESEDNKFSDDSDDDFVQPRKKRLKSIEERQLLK

O=C(NCc1ccccc1)Nc1ccc2cc1OCCOCCNc1ccn3ncc-2c3n1 [compound 16]
ΔTm at 10 µM [1]: 1.4 °C | ΔTm at 10 µM [2]: 1.3 °C | ΔTm at 10 µM [3]: 0 °C | ΔTm at 10 µM [4]: -0.7 °C

O=C(NCc1ccccc1Cl)Nc1ccc2cc1OCCOCCNc1ccn3ncc-2c3n1 [compound 17]
ΔTm at 10 µM [1]: 1.6 °C | ΔTm at 10 µM [2]: 0.6 °C | ΔTm at 10 µM [3]: 0.5 °C | ΔTm at 10 µM [4]: 0.8 °C

O=C(NCc1cccc(Cl)c1)Nc1ccc2cc1OCCOCCNc1ccn3ncc-2c3n1 [compound 18]
ΔTm at 10 µM [1]: 1.8 °C | ΔTm at 10 µM [2]: 0.4 °C | ΔTm at 10 µM [3]: 0.09 °C | ΔTm at 10 µM [4]: 1 °C

O=C(NCc1ccc(Cl)cc1)Nc1ccc2cc1OCCOCCNc1ccn3ncc-2c3n1 [compound 19]
ΔTm at 10 µM [1]: 2.5 °C | ΔTm at 10 µM [2]: 1.2 °C | ΔTm at 10 µM [3]: -0.2 °C | ΔTm at 10 µM [4]: 0.8 °C

O=C(NCc1ccc(Cl)cc1Cl)Nc1ccc2cc1OCCOCCNc1ccn3ncc-2c3n1 [compound 20]
ΔTm at 10 µM [1]: 2.2 °C | ΔTm at 10 µM [2]: 0.8 °C | ΔTm at 10 µM [3]: 0.4 °C | ΔTm at 10 µM [4]: 1.1 °C

O=C(NCc1ccc(Cl)cc1F)Nc1ccc2cc1OCCOCCNc1ccn3ncc-2c3n1 [compound 21]
ΔTm at 10 µM [1]: 2.7 °C | ΔTm at 10 µM [2]: 0.9 °C | ΔTm at 10 µM [3]: -0.2 °C | ΔTm at 10 µM [4]: 1.1 °C

Cc1cc(Cl)ccc1CNC(=O)Nc1ccc2cc1OCCOCCNc1ccn3ncc-2c3n1 [compound 23]
ΔTm at 10 µM [1]: 3.1 °C | ΔTm at 10 µM [2]: 0.5 °C | ΔTm at 10 µM [3]: 1.6 °C | ΔTm at 10 µM [4]: 0.6 °C

Cc1cc(Br)ccc1CNC(=O)Nc1ccc2cc1OCCOCCNc1ccn3ncc-2c3n1 [compound 24]
ΔTm at 10 µM [5]: 0.2 °C | ΔTm at 10 µM [6]: 0.1 °C | ΔTm at 10 µM [7]: 1 °C

Cc1ccc(F)cc1CNC(=O)Nc1ccc2cc1OCCOCCNc1ccn3ncc-2c3n1 [compound 26]
ΔTm at 10 µM [5]: 0.3 °C | ΔTm at 10 µM [6]: 0.1 °C | ΔTm at 10 µM [7]: 0.4 °C

O=C(NCc1ccccc1C(F)(F)F)Nc1ccc2cc1OCCOCCNc1ccn3ncc-2c3n1 [compound 27]
ΔTm at 10 µM [5]: 0.3 °C | ΔTm at 10 µM [6]: 0.1 °C | ΔTm at 10 µM [7]: 1.3 °C

O=C(NCc1ccc(C(F)(F)F)cc1)Nc1ccc2cc1OCCOCCNc1ccn3ncc-2c3n1 [compound 28]
ΔTm at 10 µM [5]: 0.5 °C | ΔTm at 10 µM [6]: 0.4 °C | ΔTm at 10 µM [7]: 1.6 °C

COc1ccccc1CNC(=O)Nc1ccc2cc1OCCOCCNc1ccn3ncc-2c3n1 [compound 29]
ΔTm at 10 µM [5]: 0.1 °C | ΔTm at 10 µM [6]: 0.2 °C | ΔTm at 10 µM [7]: 0.5 °C

COc1cccc(CNC(=O)Nc2ccc3cc2OCCOCCNc2ccn4ncc-3c4n2)c1 [compound 30]
ΔTm at 10 µM [5]: 0.2 °C | ΔTm at 10 µM [6]: 0.2 °C | ΔTm at 10 µM [7]: 0.3 °C

COc1ccc(CNC(=O)Nc2ccc3cc2OCCOCCNc2ccn4ncc-3c4n2)cc1 [compound 31]
ΔTm at 10 µM [5]: 0.4 °C | ΔTm at 10 µM [6]: 0.2 °C | ΔTm at 10 µM [7]: 0.2 °C

COc1ccc(CNC(=O)Nc2ccc3cc2OCCOCCNc2ccn4ncc-3c4n2)cc1F [compound 32]
ΔTm at 10 µM [5]: 0.3 °C | ΔTm at 10 µM [6]: 0.2 °C | ΔTm at 10 µM [7]: 0.5 °C

COc1cc(CNC(=O)Nc2ccc3cc2OCCOCCNc2ccn4ncc-3c4n2)ccc1F [compound 33]
ΔTm at 10 µM [5]: 0.5 °C | ΔTm at 10 µM [6]: 0.1 °C | ΔTm at 10 µM [7]: 0.6 °C

C[C@H](NC(=O)Nc1ccc2cc1OCCOCCNc1ccn3ncc-2c3n1)c1ccccc1 [compound 34]
ΔTm at 10 µM [5]: 0.1 °C | ΔTm at 10 µM [6]: 0.1 °C | ΔTm at 10 µM [7]: -0.1 °C

CN1CCN(C(=O)Nc2ccc3cc2OCCOCCNc2ccn4ncc-3c4n2)CC1 [compound 35]
ΔTm at 10 µM [1]: 0.4 °C | ΔTm at 10 µM [2]: -0.1 °C | ΔTm at 10 µM [3]: 0.4 °C | ΔTm at 10 µM [4]: 0.5 °C

Source: paper PMC12621043, “Un-LOK-ing a New Approach for Conformational Selective Targeting of STK10 (LOK)” (ACS Medicinal Chemistry Letters, 2025)
